Experimental data as given in US20130267547A1, “PRODRUGS UTILIZING A TRANSPORTER-DIRECTED UPTAKE MECHANISM” (VIRGINIA COMMONWEALTH UNIVERSITY, priority 2010, published 2013).

How the values were obtained:
[1] = system: BeWo cells; test: Uptake of non-radiolabelled LPV esters in BeWo cells (LC-MS/MS); type: cell-based, human; conditions: for Rank order of uptake: non-radiolabelled esters
Experimental: (§1) NMR spectroscopy was performed on the compounds including GLPV (FIG. 14A). […] An LC-MS/MS assay was developed and validated to determine concentrations of the novel compounds in biological matrices and fluids, as shown in FIG. 14B.

[2] = system: fresh human placental villous tissue; test: Incubation of DGLPV with fresh human placental villous tissue (HPLC of medium and tissue); type: in vitro ADME
Experimental: DGLPV was synthesized as described above. The amount of DGLPV in the media originally containing 100 uM DGLPV was measured using HPLC as described above, and again after a 30 minute incubation with fresh human placental villous tissue in the same media.
To confirm that the DGLPV was taken up by the tissue and hydrolyzed therein, HPLC was used to measure the amount of free LPV present in the tissue.

[3] = system: plasma esterases; test: Stability in human plasma; type: in vitro ADME
Experimental: The stability of SLPV was determined by incubating SLPV (20 μM) in human plasma from one healthy adult at 37° C. for 18 hours.

[4] = Hydrolysis of LPV esters in vivo in rats
Experimental: as §1

[5] = system: BeWo cells; test: Uptake of 3H-lopinavir, 3H-succinyl-lopinavir and 3H-carnitine-succinyl-lopinavir by BeWo cells, with and without transport inhibitors; conditions: for inhibition at 100 µM / inhibition at 250 µM: Homo sapiens, BeWo, read-out: Extent of Uptake Inhibition
Experimental: FIG. 10. […] BeWo cells (passage 38) were incubated with the compounds for 10 minutes at 37° C. or 4° C. in Dulbecco's phosphate buffered saline containing 0.05% bovine serum albumin. After incubation, the cells were washed with the cold buffer (lacking the compounds), and compounds were extracted from the cells into methanol followed by liquid scintillation analysis.
Specifically, bromosulfophthalein (BSP) is an inhibitor of several organic anion transporters (OATs; gene family SLC22A), as well as organic anion transporting polypeptides (OATPs; gene family SLCO). […] Finally, taurocholate is a classic substrate for bile salt transporters, including the sodium-dependent taurocholate transporter (NTCP; SLC10A1), the apical bile salt transporter (ASBT; SLC10A2), and certain OATPs.
The BeWo cell line is originally derived from a human choriocarcinoma. The BeWo cell line (Schwartz clone; passage 30) was a gift. BeWo cells in these studies is used between passages 30-70. BeWo cells are cultured in high glucose Dulbecco's modified Eagle's medium (DMEM) supplemented with 10% heat inactivated fetal bovine serum (FBS).

[6] = system: P-glycoprotein; conditions: mice; cited from earlier work
[7] = system: human primary cytotrophoblast cells; test: Uptake of 3H-SLPV and 3H-LPV by primary cytotrophoblast cells; type: cell-based
From the text: We also isolated primary cytotrophoblast cells from one term (39 weeks gestation) placenta delivered by cesarean section. […] (FIG. 7).

Cc1cccc(C)c1OCC(=O)NC(Cc1ccccc1)[C@H](CC(Cc1ccccc1)NC(=O)[C@H](C(C)C)N1CCCNC1=O)OC(=O)COCC(=O)O (some centres unmarked) [DGLPV, Diglycolic-Lopinavir]
Temperature dependence of uptake, in words [1]: temperature dependent
Rank order of uptake [1]: GLPV>SLPV>DGLPV
Amount of DGLPV in the medium after incubation with tissue ([2]; 100 uM DGLPV, 30 minute incubation): decrease in DGLPV in the medium
Hydrolysis in the tissue to release free lopinavir, in words ([2]; human placental villous tissue): can also be hydrolyzed in the tissue
Transport into human tissues, in words ([2]; human placental villous tissue): can also be transported into human tissues
half-life ([3]; human, plasma, preliminary data, read-out: Plasma hydrolysis half-life (converted)): ~2 h
Hydrolysis in vivo, in words [4]: capable of being hydrolyzed in vivo

Cc1cccc(C)c1OCC(=O)N[C@@H](Cc1ccccc1)[C@@H](O)C[C@H](Cc1ccccc1)NC(=O)[C@H](C(C)C)N1CCCNC1=O [LPV, lopinavir, reference compound]
Extent of Uptake Inhibition ([5]; Cold (4° C.), BeWo cells): 10%
inhibition at 100 µM [5]: 9%
inhibition at 250 µM [5]: 7%

Cc1cccc(C)c1OCC(=O)NC(Cc1ccccc1)C(CC(Cc1ccccc1)NC(=O)C(C(C)C)N1CCCNC1=O)OC(=O)CCC(=O)O (centres unmarked) [SLPV, Succinyl-lopinavir]
Reduction of uptake in the presence of linoleic acid ([5]; 40 μM linoleic acid (LA), BeWo cells, p<0.05): 34%

CC(=O)O[C@H]1C(=O)[C@@]2(C)[C@H]([C@H](OC(=O)c3ccccc3)[C@]3(O)C[C@H](OC(=O)[C@H](O)[C@@H](NC(=O)c4ccccc4)c4ccccc4)C(C)=C1C3(C)C)[C@]1(OC(C)=O)CO[C@@H]1C[C@@H]2O [paclitaxel]
Fold more drug entering P-glycoprotein deficient Abcb1a−/−/1b−/− fetuses than wild type fetuses [6]: 16 fold

Cc1cccc(C)c1OCC(=O)NC(Cc1ccccc1)[C@H](CC(Cc1ccccc1)NC(=O)[C@H](C(C)C)N1CCCNC1=O)OC(=O)CCC(=O)O (some centres unmarked) [SLPV, Succinyl-lopinavir]
Temperature dependence of uptake, in words [1]: temperature dependent
Rank order of uptake [1]: GLPV>SLPV>DGLPV
Effect of ABC transporter inhibitor MK571 on uptake, in words [5]: slight increase in uptake
Effect of arachidonic acid on uptake, in words [5]: no effect
Temperature dependence of uptake, in words [5]: inhibited at reduced temperatures
Extent of Uptake Inhibition ([5]; Cold (4° C.), BeWo cells): 62%
inhibition at 100 µM [5]: -1%
inhibition at 250 µM [5]: 7%
Temperature dependence of uptake, in words ([5]; human, 10 minutes): significantly less than at 37 °C
Extent of Uptake Inhibition ([5]; linoleic acid (40 mM), BeWo cells): 40%
Extent of Uptake Inhibition ([5]; valproic acid (1 mM), BeWo cells): 5%
Temperature dependence of uptake, in words ([7]; 4° C. vs 37° C., cytotrophoblasts): temperature-dependent
Uptake relative to uptake of LPV ([7]; human placental cytotrophoblasts, 37° C., after 24 hrs in culture): 10 fold
Stability in human plasma, in words ([3]; 20 μM, human plasma from one healthy adult, 37° C., 18 hours): completely stable to plasma esterases
